Holding throughout (format): in vivo, mouse
Experiment [1] relates to C57/BI6N wildtype mice. The experiment can be described thus: Lapatinib treatment of geriatric mice: thymus size/weight. The conditions noted are these: 18 month old mice, 2.5 mg/day lapatinib oral gavage 5x/week for 5 weeks vs DMSO control, n=10/group, p<0.05.
Experiment [2] has as its system C57/BI6N wildtype mice. The experiment can be described thus: Lapatinib treatment of elderly mice: thymus cell counts and flow cytometry of T lymphocyte populations. To be noted: n=5/group. The procedure:
[…] All mice were housed on a 12 hour light/dark cycle, in individually ventilated cages with access to standard rodent diet (Harlan, UK) and tap water ad libitum. Mice were euthanized by intraperitoneal injection of 0.2 mL sodium pentobarbital (Euthatal, Merial Animal Health, UK).
(§1) Dox was administered ad libitum in a foil-wrapped standard drinking bottle; fresh Dox was given every 48 hours. 300 mg Lapatinib (#J62401, Alfa Aesar, USA) was prepared in 12 mL DMSO (#472301, Sigma, UK) at a final concentration of 25 mg/mL. Mice were given 2.5 mg (100 µL) Lapatinib or an equivalent dose of DMSO alone 5 times per week for 4 weeks by oral gavage. One hour prior to euthanasia all mice for subsequent histological analysis were injected with 150 μL of 10 mg/mL BrdU solution (Invitrogen, UK) to label proliferating cells.
Thymus and lymph nodes were prepared for flow cytometry by incubation in a 2 mL solution of RPMI […] (Invitrogen, UK) containing Liberase TL (0.3 mg/mL; Roche, Germany) plus DNAse I (0.2 mg/ml, Roche, Germany) for 30 minutes at 37 degrees Celsius. Thymus and lymph node tissue was then macerated through a […] filter (BD, USA) and enzymes inactivated by further washing with 30 mL PBS (Invitrogen, UK) plus 5 mM EDTA (Sigma, UK). This single cell suspension was centrifuged for 5 minutes at 1250 rpm, the supernatant removed, and the cell pellet resuspended in 3 mL RPMI 1640 (lymph nodes) or 5 mL RPMI 1640 (thymus). Total cell counts were obtained using a Millicell automated hematocytometer. Blood cells were prepared for flow cytometry by direct blood collection from the descending aorta in a capillary Microvette tube containing EDTA (CB 300 K2E, Sarstedt, Germany), elimination of red blood cells using lysis buffer (R7757, Sigma, UK) and dilution in 30 mL RPMI 1640. Blood cells were then pelleted by centrifugation as above and resuspended in 20 mL RPMI 1640 and cell counts obtained using a Millicell automated hematocytometer.
All cell suspensions (thymus, lymph node, blood) were diluted to 1 million cells/mL for antibody staining and flow cytometry analysis. Antibodies for flow cytometry analysis were as follows: CD3-FITC (17a2, Invitrogen, UK), CD4-PE (I3t4, BD Pharmingen, UK), CD8a-Q605 (53-6.7, eBioscience, UK), CD19-A421 (6D5, Biolegend, UK), CD11b-A421 (eBioscience, UK), Ter119-A421 (TER119, eBioscience, UK), CD47-APC780 (1M7, eBioscience, UK), CD25-A660 (7D4, eBioscience, UK), Nk1.1-APC780 (PK136, eBioscience, UK), NkP46-a660 (29a1.4, eBioscience, UK). All antibodies were diluted to 2 μL/10̂6 cells in 1 mL final volume; unstained and single antibody stained controls were used to set all voltage and gate compensations. Antibody staining was for 30 minutes at 4 degrees Celsius, after which time cells were centrifuged at 1250 rpm for 5 minutes and cell pellets resuspended in 1 mL RPMI 1640. All flow cytometry analysis was performed on either an LSR2 or LSR Fortessa flow cytometry system. A minimum of 10,000 events was collected for each analysis (phenotype, T cell developmental stage, peripheral blood and lymph node cell analysis). All experiments represent at least an n=4 for each condition and all analyses were done using FlowJo software. Thymus tissue sections were prepared for BrdU immunohistochemistry by dewaxing using an automated tissue staining system (TissueTek), blocking for 1 hour at room temperature in blocking solution (PBS containing 10% fetal bovine serum (10270-106, Invitrogen, UK) plus fish skin gelatin (G7765, Sigma, UK)). A BrdU primary antibody (rat, Covance, UK) was diluted in blocking solution and slides were incubated overnight in this antibody solution at 4 degrees Celsius. Slides were then washed in PBS and an anti-rat Alexa 555 secondary antibody (Invitrogen, UK) was applied in blocking solution for 3 hours at room temperature, washed, and slides coverslipped using Mowiol mounting media.

For experiment [3], the system named is C57/BI6N wildtype mice. The experiment can be described thus: Lapatinib treatment of geriatric mice: thymus histology and BrdU immunohistochemistry. To be noted: lapatinib vs control. On the procedure:
Eighteen month old C57/BI6N wildtype mice used in Lapatinib studies were purchased from Charles River Laboratories (UK). All mice were housed on a 12 hour light/dark cycle, in individually ventilated cages with access to standard rodent diet (Harlan, UK) and tap water ad libitum. Mice were euthanized by intraperitoneal injection of 0.2 mL sodium pentobarbital (Euthatal, Merial Animal Health, UK).
as §1
All cell suspensions (thymus, lymph node, blood) were diluted to 1 million cells/mL for antibody staining and flow cytometry analysis. Antibodies for flow cytometry analysis were as follows: CD3-FITC (17a2, Invitrogen, UK), CD4-PE (I3t4, BD Pharmingen, UK), CD8a-Q605 (53-6.7, eBioscience, UK), CD19-A421 (6D5, Biolegend, UK), CD11b-A421 (eBioscience, UK), Ter119-A421 (TER119, eBioscience, UK), CD47-APC780 (1M7, eBioscience, UK), CD25-A660 (7D4, eBioscience, UK), Nk1.1-APC780 (PK136, eBioscience, UK), NkP46-a660 (29a1.4, eBioscience, UK). All antibodies were diluted to 2 μL/10̂6 cells in 1 mL final volume; unstained and single antibody stained controls were used to set all voltage and gate compensations. Antibody staining was for 30 minutes at 4 degrees Celsius, after which time cells were centrifuged at 1250 rpm for 5 minutes and cell pellets resuspended in 1 mL RPMI 1640. All flow cytometry analysis was performed on either an LSR2 or LSR Fortessa flow cytometry system. A minimum of 10,000 events was collected for each analysis (phenotype, T cell developmental stage, peripheral blood and lymph node cell analysis). […]

[4] abbreviates: 15-18 month old mice vs DMSO treated controls.
Where [5] appears, read: 15 month old mice, CD4/CD8/lineage negative thymocytes, vs DMSO.

Turning to `CS(=O)(=O)CCNCc1ccc(-c2ccc3ncnc(Nc4ccc(OCc5cccc(F)c5)c(Cl)c4)c3c2)o1` [Lapatinib, N-[3-chloro-4-[(3-fluorophenyl)methoxy]phenyl]-6-[5-[(2-methylsulfonylethylamino)methyl]-2-furyl]quinazolin-4-amine], the “thymus size / thymus weight” value with C57/BI6N wildtype mice [1] is “increase thymus weight”. The “thymus size / thymus weight” value with C57/BI6N wildtype mice [1] (listed as lapatinib) was “increases thymus size”. For the same molecule, in the experiment with C57/BI6N wildtype mice [2] (setting [4]), the “CD4 T cell production” value is reported as “trend towards increased”; the “CD8 T cell production” value was “trend towards increased”; the “DN-T T cell production” value was “trend towards increased”; the “production of immature (double positive, DP-T) T lymphocytes” value is “increases production”. Moreover, in the experiment with C57/BI6N wildtype mice [2] (setting [4]), the thymus cell abundance entry is “increased thymus cell abundance”. Moreover, in the experiment on C57/BI6N wildtype mice [2] (setting [5]), the “DN1 (CD44+/CD25−) immature T cell abundance” value is “significantly reduced”, the “DN2 (CD44+/CD25+) immature T cell abundance” value is listed as “significantly reduced” and the “DN4 (CD44/CD25 negative) cell abundance” value is reported as “increased”. Besides, in the experiment with C57/BI6N wildtype mice [3] (BrdU staining, n=5/treatment type, p<0.05), the “BrdU cell abundance (thymocyte proliferation)” value is reported as “statistically significant increase in thymocyte proliferation”. The “thymus histological appearance (cortico-medullary boundaries)” value in the experiment on C57/BI6N wildtype mice [3] (H&E sections) was “restored thymic cortico-medullary boundaries and improved overall thymus histological appearance”. In the experiment with C57/BI6N wildtype mice [3] (elderly mice), the thymus involution result is recorded as “reverses thymus involution”.

The record behind these values is patent US20160175308A1, “THERAPEUTIC AGENTS FOR MODULATING THYMIC FUNCTION AND/OR GROWTH AND/OR TREATING VARIOUS DISORDERS” (UCL BUSINESS PLC, priority 2013, published 2016).
